Entries after “also recorded” stand apart in the source; their conditions may differ. Ends that are not written are not given here.

The subject of experiment [1] is Six1::H2B-GFP reporter line. As to the kind of experiment: LOPAC small molecule screen and validation for enhanced CP induction.
Experimental: All differentiations starting from E8 were dissociated into single cells using EDTA and replated at high density in E8 with the ROCK inhibitor (Tocris). Cells were typically seeded at a density of 200,000 cells/cm^2 on Matrigel coated dishes. Switching from E8 to E6 triggered differentiations (i.e. d0). Neuroectoderm (NE) formation was generated by culturing the cells in E6 with 10 nM SB and 500 nM LDN until d12. Neural Crest (NC) was first treated with 10 nM SB, 600 nM CHIR and 1 ng/ml BMP4 from d0-d2. […] Lens placode was first treated with 10 nM SB and 5 ng/ml BMP4 from d0-d2. At d2, cells were maintained in 10 nM SB with 100 ng/ml FGF2 until d12. Trigeminal placode was first treated with 10 nM SB and 5 ng/ml BMP4 from d0-d2. At d2, CHIR was added to the SB and BMP4 until d4. Finally, non-neural ectoderm (NNE) was treated with 10 nM SB, 10 nM SU5402 and 20 ng/ml BMP4 until d12.
Experiment [2] deals with hPSC-derived pituitary cells. As to the kind of experiment: Stimulation of hormone release in vitro (ELISA). It is filed as cell-based, human. Particulars: day 30 of differentiation. Here is the method:
To stimulate hormone release in vitro, cells were differentiated in 24 well plates as described above. On day 30 of differentiation cells were washed once with PBS and 250 μl of fresh medium containing either the solvent or the stimulant were added to each well. After 12 h the supernatant was removed and centrifuged for 5 min at 2000 g to pellet debris. Supernatant was transferred into fresh reaction tubes, flash frozen and stored at −80° C. until ELISA measurements. Stimulants used were: CRF (Tocris, 1 μM), Stressin I (Tocris, 2 μM), Ghrelin (Tocris, 1 μM), Somatocrinin (Accurate Chemical, 1 μg/ml), Nafarelin (Tocris, 1 μM) and Urocortin (Tocris, 500 nM).
Hormone concentration in the supernatant of cells or in animal serum was analyzed using ELISA measurements. Hormone concentration in the cell culture supernatant was assessed using traditional single hormone ELISA Kits according to the manufactures manual. ACTH (Calbiotech, detects rat and human ACTH), hGH (R&D Systems, human specific), FSH (Calbiotech, FSH (lumELISA, human specific) and corticosterone (Abcam). Plates were read using an EnSpire Multimode plate reader (PerkinElmer). Hormone concentration in in vivo samples was analyzed using either traditional ELISA (for ACTH only, serum diluted 1:2) or species specific (human or rat) Milliplex multiplex ELISA using Luminex technology (Millipore). Magnetic bead-based sandwich immunoassay was performed according to the manufactures manual. 25 μl of undiluted serum samples in duplicate wells were analyzed by Luminex FlexMap 3D (Luminex Corp, Austin, TX). Cytokine concentrations were determined by Luminex Xponent 4.1 and EMD-Millipore Milliplex Analyst v5.1 using 5-p log analysis.

Turning to `c1cnc2c(c1)ccc1cccnc12` [Phenantroline], the “percentage of cells expressing Six1 (hit validation)” value in experiment [1] (CP protocol) is “confirmed to reliably enhance the percentage of cells expressing Six1”. Besides, in experiment [1] (CP protocol in the absence of FGF2, control 18%), the Six1 positive cells is on record as 69%. The “expression of Six1 versus control differentiations (primary screen hit)” value in experiment [1] (LOPAC screen, CP protocol) is “increased expression of SIX1”. For the same molecule, the “fold increase of Six1 positive cells” value in experiment [1] (absence of FGF2, 69% versus 18%) is about 4 fold. Besides, in experiment [1] (differentiation towards CP), the “expression of other lineage markers such as Sox10, T, MyoD or Sox17” value was “without inducing the expression of other lineage markers” and the “increase in Six1 expression over controls” value is given as “five-fold”.

On to “CRF: stimulant of hormone release (Tocris, 1 μM) (SEEPPISLDLTFHLLREVLEMARAEQLAQQAHSNRKLMEII; ends and bridges not checked; UniProt P06850 154-194, looked up)”, for which the ACTH release entry in experiment [2] is “induced release of ACTH; also recorded: specifically induced”.

Take “Ghrelin: stimulant of hormone release (Tocris, 1 μM) (GSSFLSPEHQRVQQRKESKKPPAKLQPR; also: octanoylated, site not given here; UniProt Q9UBU3 24-51, looked up)”: the ACTH release result in experiment [2] is given as “did not trigger ACTH release”.

Take “Somatocrinin: stimulant of hormone release (Accurate Chemical, 1 μg/ml) (YADAIFTNSYRKVLGQLSARKLLQDIMSRQQGESNQERGARARL; ends and bridges not checked; UniProt P01286 32-75, looked up)”: the GH release entry is recorded as “induced” in experiment [2] and “triggered robust increase in GH release” in experiment [2] (listed as somatocrinin). The ACTH release entry in experiment [2] (listed as somatocrinin) is on record as “did not trigger ACTH release”.

Regarding “Urocortin: stimulant of hormone release (Tocris, 500 nM) (DNPSLSIDLTFHLLRTLLELARTQSQRERAEQNRIIFDSV; ends and bridges not checked; UniProt P55089 83-122, looked up)”, the figures for the ACTH release result in experiment [2] and in experiment [2] (listed as urocortin) were “specifically induced” and “induced release of ACTH”, respectively.
